Results as given in US9993494B2, “Compositions and methods for treating fibrotic disease” (eFFECTOR Therapeutics, Inc., priority 2014, dated 2018).

Tested on: normal human lung fibroblasts
Test: Ribosomal profiling: translational efficiency in TGFβ-treated fibroblasts
Assay type: cell-based
Details: TGFβ-treated fibroblasts
Outline: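 Cells lysed on ice after a cold PBS wash containing cycloheximide. Ribosome-protected fragments and total mRNA were prepared with the ARTseq kit and sequenced by RNA-Seq. Reads were trimmed, mapped to the human genome and counted uniquely over coding regions per gene, with low-count genes excluded before differential translational-efficiency analysis.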

## Cc1ccc(=O)n(-c2ccccc2)c1 [pirfenidone, 5-methyl-1-phenylpyridin-2-one]
ENSG00000013563
  renormalizing the translational profile of DNASE1L1: − (− = <0.9)
ENSG00000049130
  renormalizing the translational profile of KITLG: − (− = <0.9)
ENSG00000049192
  renormalizing the translational profile of ADAMTS6: − (− = <0.9)
ENSG00000050426
  renormalizing the translational profile of LETMD1: − (− = <0.9)
ENSG00000052126
  renormalizing the translational profile of PLEKHA5: − (− = <0.9)
ENSG00000063046
  renormalizing the translational profile of EIF4B: + (+ = 0.9 to 1.5)
ENSG00000063177
  renormalizing the translational profile of RPL18: + (+ = 0.9 to 1.5)
ENSG00000064393
  renormalizing the translational profile of HIPK2: − (− = <0.9)
ENSG00000066279
  renormalizing the translational profile of ASPM: + (+ = 0.9 to 1.5)
ENSG00000068028
  renormalizing the translational profile of RASSF1: − (− = <0.9)
ENSG00000070756
  renormalizing the translational profile of PABPC1: − (− = <0.9)
ENSG00000071082
  renormalizing the translational profile of RPL31: + (+ = 0.9 to 1.5)
ENSG00000075651
  renormalizing the translational profile of PLD1: − (− = <0.9)
ENSG00000078401
  renormalizing the translational profile of EDN1: − (− = <0.9)
ENSG00000087586
  renormalizing the translational profile of AURKA: − (− = <0.9)
ENSG00000088367
  renormalizing the translational profile of EPB41L1: − (− = <0.9)
ENSG00000089009
  renormalizing the translational profile of RPL6: − (− = <0.9)
ENSG00000089041
  renormalizing the translational profile of P2RX7: ++ (++ = 1.5 to 2.0)
ENSG00000089094
  renormalizing the translational profile of KDM2B: − (− = <0.9)
ENSG00000089157
  renormalizing the translational profile of RPLP0: − (− = <0.9)
ENSG00000089289
  renormalizing the translational profile of IGBP1: − (− = <0.9)
ENSG00000090376
  renormalizing the translational profile of IRAK3: − (− = <0.9)
ENSG00000090621
  renormalizing the translational profile of PABPC4: − (− = <0.9)
ENSG00000094963
  renormalizing the translational profile of FMO2: +++ (+++ = >2.0)
ENSG00000097021
  renormalizing the translational profile of ACOT7: − (− = <0.9)
ENSG00000099624
  renormalizing the translational profile of ATP5D: − (− = <0.9)
ENSG00000100097
  renormalizing the translational profile of LGALS1: + (+ = 0.9 to 1.5)
ENSG00000100129
  renormalizing the translational profile of EIF3L: − (− = <0.9)
ENSG00000100316
  renormalizing the translational profile of RPL3: + (+ = 0.9 to 1.5)
ENSG00000101639
  renormalizing the translational profile of CEP192: − (− = <0.9)
ENSG00000101935
  renormalizing the translational profile of AMMECR1: − (− = <0.9)
ENSG00000102007
  renormalizing the translational profile of PLP2: − (− = <0.9)
ENSG00000104408
  renormalizing the translational profile of EIF3E: − (− = <0.9)
ENSG00000104529
  renormalizing the translational profile of EEF1D: − (− = <0.9)
ENSG00000104979
  renormalizing the translational profile of C19orf53: − (− = <0.9)
ENSG00000105373
  renormalizing the translational profile of GLTSCR2: + (+ = 0.9 to 1.5)
ENSG00000105514
  renormalizing the translational profile of RAB3D: + (+ = 0.9 to 1.5)
ENSG00000105640
  renormalizing the translational profile of RPL18A: + (+ = 0.9 to 1.5)
ENSG00000105664
  renormalizing the translational profile of COMP: − (− = <0.9)
ENSG00000106415
  renormalizing the translational profile of GLCCI1: + (+ = 0.9 to 1.5)
ENSG00000106789
  renormalizing the translational profile of CORO2A: − (− = <0.9)
ENSG00000107623
  renormalizing the translational profile of GDF10: − (− = <0.9)
ENSG00000108107
  renormalizing the translational profile of RPL28: + (+ = 0.9 to 1.5)
ENSG00000108298
  renormalizing the translational profile of RPL19: − (− = <0.9)
ENSG00000108551
  renormalizing the translational profile of RASD1: − (− = <0.9)
ENSG00000109065
  renormalizing the translational profile of NAT9: − (− = <0.9)
ENSG00000109475
  renormalizing the translational profile of RPL34: + (+ = 0.9 to 1.5)
ENSG00000109846
  renormalizing the translational profile of CRYAB: − (− = <0.9)
ENSG00000111640
  renormalizing the translational profile of GAPDH: − (− = <0.9)
ENSG00000111678
  renormalizing the translational profile of C12orf57: − (− = <0.9)
ENSG00000112559
  renormalizing the translational profile of MDFI: − (− = <0.9)
ENSG00000113070
  renormalizing the translational profile of HBEGF: − (− = <0.9)
ENSG00000114391
  renormalizing the translational profile of RPL24: − (− = <0.9)
ENSG00000114942
  renormalizing the translational profile of EEF1B2: − (− = <0.9)
ENSG00000115267
  renormalizing the translational profile of IFIH1: + (+ = 0.9 to 1.5)
ENSG00000117543
  renormalizing the translational profile of DPH5: − (− = <0.9)
ENSG00000118898
  renormalizing the translational profile of PPL: − (− = <0.9)
ENSG00000120278
  renormalizing the translational profile of PLEKHG1: − (− = <0.9)
ENSG00000121897
  renormalizing the translational profile of LIAS: − (− = <0.9)
ENSG00000121957
  renormalizing the translational profile of GPSM2: − (− = <0.9)
ENSG00000122026
  renormalizing the translational profile of RPL21: + (+ = 0.9 to 1.5)
ENSG00000122406
  renormalizing the translational profile of RPL5: + (+ = 0.9 to 1.5)
ENSG00000122641
  renormalizing the translational profile of INHBA: − (− = <0.9)
ENSG00000122966
  renormalizing the translational profile of CIT: + (+ = 0.9 to 1.5)
ENSG00000125691
  renormalizing the translational profile of RPL23: + (+ = 0.9 to 1.5)
ENSG00000125869
  renormalizing the translational profile of LAMP5: − (− = <0.9)
ENSG00000125967
  renormalizing the translational profile of NECAB3: − (− = <0.9)
ENSG00000127184
  renormalizing the translational profile of COX7C: − (− = <0.9)
ENSG00000128342
  renormalizing the translational profile of LIF: − (− = <0.9)
ENSG00000129422
  renormalizing the translational profile of MTUS1: ++ (++ = 1.5 to 2.0)
ENSG00000129675
  renormalizing the translational profile of ARHGEF6: − (− = <0.9)
ENSG00000130255
  renormalizing the translational profile of RPL36: + (+ = 0.9 to 1.5)
ENSG00000130513
  renormalizing the translational profile of GDF15: − (− = <0.9)
ENSG00000130707
  renormalizing the translational profile of ASS1: − (− = <0.9)
ENSG00000130741
  renormalizing the translational profile of EIF2S3: − (− = <0.9)
ENSG00000131469
  renormalizing the translational profile of RPL27: − (− = <0.9)
ENSG00000132031
  renormalizing the translational profile of MATN3: − (− = <0.9)
ENSG00000132170
  renormalizing the translational profile of PPARG: +++ (+++ = >2.0)
ENSG00000132510
  renormalizing the translational profile of KDM6B: − (− = <0.9)
ENSG00000133321
  renormalizing the translational profile of RARRES3: − (− = <0.9)
ENSG00000134897
  renormalizing the translational profile of BIVM: − (− = <0.9)
ENSG00000135390
  renormalizing the translational profile of ATP5G2: + (+ = 0.9 to 1.5)
ENSG00000135480
  renormalizing the translational profile of KRT7: ++ (++ = 1.5 to 2.0)
ENSG00000135486
  renormalizing the translational profile of HNRNPA1: − (− = <0.9)
ENSG00000136244
  renormalizing the translational profile of IL6: − (− = <0.9)
ENSG00000136942
  renormalizing the translational profile of RPL35: − (− = <0.9)
ENSG00000136999
  renormalizing the translational profile of NOV: − (− = <0.9)
ENSG00000137331
  renormalizing the translational profile of IER3: − (− = <0.9)
ENSG00000137628
  renormalizing the translational profile of DDX60: − (− = <0.9)
ENSG00000137818
  renormalizing the translational profile of RPLP1: + (+ = 0.9 to 1.5)
ENSG00000137819
  renormalizing the translational profile of PAQR5: − (− = <0.9)
ENSG00000138356
  renormalizing the translational profile of AOX1: − (− = <0.9)
ENSG00000138675
  renormalizing the translational profile of FGF5: + (+ = 0.9 to 1.5)
ENSG00000138735
  renormalizing the translational profile of PDE5A: − (− = <0.9)
ENSG00000139354
  renormalizing the translational profile of GAS2L3: − (− = <0.9)
ENSG00000139734
  renormalizing the translational profile of DIAPH3: ++ (++ = 1.5 to 2.0)
ENSG00000141140
  renormalizing the translational profile of MYO19: − (− = <0.9)
ENSG00000142541
  renormalizing the translational profile of RPL13A: + (+ = 0.9 to 1.5)
ENSG00000142676
  renormalizing the translational profile of RPL11: − (− = <0.9)
ENSG00000143632
  renormalizing the translational profile of ACTA1: + (+ = 0.9 to 1.5)
ENSG00000143850
  renormalizing the translational profile of PLEKHA6: − (− = <0.9)
ENSG00000144713
  renormalizing the translational profile of RPL32: − (− = <0.9)
ENSG00000145592
  renormalizing the translational profile of RPL37: + (+ = 0.9 to 1.5)
ENSG00000145741
  renormalizing the translational profile of BTF3: − (− = <0.9)
ENSG00000146066
  renormalizing the translational profile of HIGD2A: + (+ = 0.9 to 1.5)
ENSG00000146592
  renormalizing the translational profile of CREB5: + (+ = 0.9 to 1.5)
ENSG00000146966
  renormalizing the translational profile of DENND2A: − (− = <0.9)
ENSG00000147403
  renormalizing the translational profile of RPL10: + (+ = 0.9 to 1.5)
ENSG00000147677
  renormalizing the translational profile of EIF3H: − (− = <0.9)
ENSG00000148303
  renormalizing the translational profile of RPL7A: + (+ = 0.9 to 1.5)
ENSG00000149100
  renormalizing the translational profile of EIF3M: − (− = <0.9)
ENSG00000149806
  renormalizing the translational profile of FAU: − (− = <0.9)
ENSG00000150636
  renormalizing the translational profile of CCDC102B: ++ (++ = 1.5 to 2.0)
ENSG00000151474
  renormalizing the translational profile of FRMD4A: − (− = <0.9)
ENSG00000152413
  renormalizing the translational profile of HOMER1: − (− = <0.9)
ENSG00000152527
  renormalizing the translational profile of PLEKHH2: − (− = <0.9)
ENSG00000154122
  renormalizing the translational profile of ANKH: − (− = <0.9)
ENSG00000154262
  renormalizing the translational profile of ABCA6: − (− = <0.9)
ENSG00000154358
  renormalizing the translational profile of OBSCN: − (− = <0.9)
ENSG00000154736
  renormalizing the translational profile of ADAMTS5: − (− = <0.9)
ENSG00000155463
  renormalizing the translational profile of OXA1L: − (− = <0.9)
ENSG00000155621
  renormalizing the translational profile of C9orf85: − (− = <0.9)
ENSG00000156482
  renormalizing the translational profile of RPL30: + (+ = 0.9 to 1.5)
ENSG00000156508
  renormalizing the translational profile of EEF1A1: + (+ = 0.9 to 1.5)
ENSG00000157168
  renormalizing the translational profile of NRG1: − (− = <0.9)
ENSG00000158859
  renormalizing the translational profile of ADAMTS4: − (− = <0.9)
ENSG00000161016
  renormalizing the translational profile of RPL8: − (− = <0.9)
ENSG00000161970
  renormalizing the translational profile of RPL26: + (+ = 0.9 to 1.5)
ENSG00000162244
  renormalizing the translational profile of RPL29: − (− = <0.9)
ENSG00000162545
  renormalizing the translational profile of CAMK2N1: − (− = <0.9)
ENSG00000163453
  renormalizing the translational profile of IGFBP7: − (− = <0.9)
ENSG00000163584
  renormalizing the translational profile of RPL22L1: + (+ = 0.9 to 1.5)
